{"source": "ChEMBL document CHEMBL4118201", "about": "“Design and synthesis of new antitumor agents with the 1,7-epoxycyclononane framework. Study of their anticancer action mechanism by a model compound” (Bioorg Med Chem, 2018)", "key": {"MCF7 [1]": {"tested_on": "MCF7", "experiment": "Antiproliferative activity against human MCF7 cells after 72 hrs by XTT assay", "assay_type": "functional, cell-based", "conditions": "MCF7, 72 h"}, "DNA [2]": {"tested_on": "DNA", "experiment": "Binding affinity to Escherichia coli supercoiled pBR322 DNA assessed as DNA undergoing cross links at 0.005 molar ratio per nucleotide incubated for 24 hrs under dark condition by tapping mode atomic force microscopic analysis", "assay_type": "nucleic-acid assay"}, "DNA [3]": {"tested_on": "DNA", "experiment": "Binding affinity to Escherichia coli supercoiled pBR322 DNA assessed as 0 to 2 cross links per DNA molecule at 0.005 molar ratio per nucleotide incubated for 24 hrs under dark condition by tapping mode atomic force microscopic analysis (reference value: 49%)", "assay_type": "nucleic-acid assay"}, "HL-60 [4]": {"tested_on": "HL-60", "experiment": "Cell cycle arrest in human HL60 cells assessed as accumulation at sub-G0/G1 phase at IC50 after 24 hrs by propidium iodide staining based flow cytometric method (reference value: 3.9%)", "assay_type": "functional"}, "DNA [5]": {"tested_on": "DNA", "experiment": "Binding affinity to Escherichia coli supercoiled pBR322 DNA assessed as DNA structural variation at 0.1 to 0.5 molar ratio per nucleotide incubated for 24 hrs under dark condition by ethidium bromide staining based agarose gel electrophoresis", "assay_type": "nucleic-acid assay"}, "HL-60 [6]": {"tested_on": "HL-60", "experiment": "Cell cycle arrest in human HL60 cells assessed as accumulation at S-phase at IC50 after 24 hrs by propidium iodide staining based flow cytometric method (reference value: 34.24%)", "assay_type": "functional"}, "MCF7 [7]": {"tested_on": "MCF7", "experiment": "Cell cycle arrest in human MCF7 cells assessed as accumulation at sub-G0/G1 phase at IC50 after 24 hrs by propidium iodide staining based flow cytometric method", "assay_type": "functional"}, "HL-60 [8]": {"tested_on": "HL-60", "experiment": "Induction of apoptosis in human HL60 cells assessed as viable cells at IC50 after 24 hrs by annexin-V-FITC/propidium iodide staining based flow cytometric analysis (reference value: 93.81%)", "assay_type": "functional"}, "DNA [9]": {"tested_on": "DNA", "experiment": "Binding affinity to Escherichia coli supercoiled pBR322 DNA assessed as DNA undergoing kinks at 0.005 molar ratio per nucleotide incubated for 24 hrs under dark condition by tapping mode atomic force microscopic analysis", "assay_type": "nucleic-acid assay"}, "MCF7 [10]": {"tested_on": "MCF7", "experiment": "Induction of apoptosis in human MCF7 cells assessed as microtubule disintegration at IC50 after 24 hrs by indirect immunofluorescence analysis", "assay_type": "functional, cell-based"}, "HL-60 [11]": {"tested_on": "HL-60", "experiment": "Induction of apoptosis in human HL60 cells assessed as necrotic cells at IC50 after 24 hrs by annexin-V-FITC/propidium iodide staining based flow cytometric analysis (reference value: 0.06%)", "assay_type": "functional"}, "DNA [12]": {"tested_on": "DNA", "experiment": "Binding affinity to Escherichia coli supercoiled pBR322 DNA assessed as 3 to 5 cross links per DNA molecule at 0.005 molar ratio per nucleotide incubated for 24 hrs under dark condition by tapping mode atomic force microscopic analysis (reference value: 37%)", "assay_type": "nucleic-acid assay"}, "DNA [13]": {"tested_on": "DNA", "experiment": "Binding affinity to Escherichia coli supercoiled pBR322 DNA assessed as 6 to 8 cross links per DNA molecule at 0.005 molar ratio per nucleotide incubated for 24 hrs under dark condition by tapping mode atomic force microscopic analysis (reference value: 12%)", "assay_type": "nucleic-acid assay"}, "MCF7 [14]": {"tested_on": "MCF7", "experiment": "Induction of apoptosis in human MCF7 cells assessed as nuclear fragmentation at IC50 after 24 hrs by DAPI staining based immunofluorescence microscopic analysis", "assay_type": "functional, cell-based"}, "MCF7 [15]": {"tested_on": "MCF7", "experiment": "Induction of apoptosis in human MCF7 cells assessed as cell blobbing at IC50 after 24 hrs by DAPI staining based immunofluorescence microscopic analysis", "assay_type": "functional"}, "DNA [16]": {"tested_on": "DNA", "experiment": "Binding affinity to Escherichia coli supercoiled pBR322 DNA assessed as more than 10 cross links per DNA molecule at 0.005 molar ratio per nucleotide incubated for 24 hrs under dark condition by tapping mode atomic force microscopic analysis (reference value: 1%)", "assay_type": "nucleic-acid assay"}, "MCF7 [17]": {"tested_on": "MCF7", "experiment": "Cell cycle arrest in human MCF7 cells assessed as accumulation at S-phase at IC50 after 24 hrs by propidium iodide staining based flow cytometric method", "assay_type": "functional"}, "HL-60 [18]": {"tested_on": "HL-60", "experiment": "Induction of apoptosis in human HL60 cells assessed as early apoptotic cells at IC50 after 24 hrs by annexin-V-FITC/propidium iodide staining based flow cytometric analysis (reference value: 4.2%)", "assay_type": "functional"}, "HL-60 [19]": {"tested_on": "HL-60", "experiment": "Antiproliferative activity against human HL60 cells after 24 hrs by XTT assay", "assay_type": "functional, cell-based", "conditions": "HL-60, 24 h"}, "DNA [20]": {"tested_on": "DNA", "experiment": "Binding affinity to Escherichia coli supercoiled pBR322 DNA assessed as 9 to 10 cross links per DNA molecule at 0.005 molar ratio per nucleotide incubated for 24 hrs under dark condition by tapping mode atomic force microscopic analysis (reference value: 2%)", "assay_type": "nucleic-acid assay"}, "MCF7 [21]": {"tested_on": "MCF7", "experiment": "Cell cycle arrest in human MCF7 cells assessed as accumulation at G0/G1 phase at IC50 after 24 hrs by propidium iodide staining based flow cytometric method", "assay_type": "functional"}, "MCF7 [22]": {"tested_on": "MCF7", "experiment": "Cell cycle arrest in human MCF7 cells assessed as accumulation at G2/M-phase at IC50 after 24 hrs by propidium iodide staining based flow cytometric method", "assay_type": "functional"}, "HL-60 [23]": {"tested_on": "HL-60", "experiment": "Induction of apoptosis in human HL60 cells assessed as late apoptotic cells at IC50 after 24 hrs by annexin-V-FITC/propidium iodide staining based flow cytometric analysis (reference value: 1.93%)", "assay_type": "functional"}, "HL-60 [24]": {"tested_on": "HL-60", "experiment": "Cell cycle arrest in human HL60 cells assessed as accumulation at G0/G1 phase at IC50 after 24 hrs by propidium iodide staining based flow cytometric method (reference value: 51.7%)", "assay_type": "functional"}, "MCF7 [25]": {"tested_on": "MCF7", "experiment": "Induction of apoptosis in human MCF7 cells assessed as DNA condensation at IC50 after 24 hrs by DAPI staining based immunofluorescence microscopic analysis", "assay_type": "functional, cell-based"}, "MCF7 [26]": {"tested_on": "MCF7", "experiment": "Induction of apoptosis in human MCF7 cells assessed as nuclear condensation at IC50 after 24 hrs by DAPI staining based immunofluorescence microscopic analysis", "assay_type": "functional, cell-based"}, "Calf thymus DNA": {"tested_on": "Calf thymus DNA", "experiment": "Binding affinity to calf thymus DNA at 0.1 to 0.5 molar ratio per nucleotide incubated for 24 hrs under dark condition by circular dichroism spectral analysis", "assay_type": "nucleic-acid assay", "conditions": "Bos taurus"}, "MCF7 [27]": {"tested_on": "MCF7", "experiment": "Antiproliferative activity against human MCF7 cells after 24 hrs by XTT assay", "assay_type": "functional, cell-based", "conditions": "MCF7, 24 h"}, "MCF7 [28]": {"tested_on": "MCF7", "experiment": "Induction of apoptosis in human MCF7 cells assessed as formation of apoptotic bodies at IC50 after 24 hrs by DAPI staining based immunofluorescence microscopic analysis", "assay_type": "functional, cell-based"}, "DNA [29]": {"tested_on": "DNA", "experiment": "Binding affinity to Escherichia coli supercoiled pBR322 DNA assessed as supercoiled areas of plasmid DNA at 0.005 molar ratio per nucleotide incubated for 24 hrs under dark condition by tapping mode atomic force microscopic analysis (reference value: 3.5%)", "assay_type": "nucleic-acid assay"}, "MCF7 [30]": {"tested_on": "MCF7", "experiment": "Induction of apoptosis in human MCF7 cells assessed as reduction in cell size at IC50 after 24 hrs by DAPI staining based immunofluorescence microscopic analysis", "assay_type": "functional"}, "MCF7 [31]": {"tested_on": "MCF7", "experiment": "Induction of apoptosis in human MCF7 cells assessed as shrinkage of cell core at IC50 after 24 hrs by DAPI staining based immunofluorescence microscopic analysis", "assay_type": "functional"}, "HL-60 [32]": {"tested_on": "HL-60", "experiment": "Antiproliferative activity against human HL60 cells after 72 hrs by XTT assay", "assay_type": "functional, cell-based", "conditions": "HL-60, 72 h"}, "HL-60 [33]": {"tested_on": "HL-60", "experiment": "Cell cycle arrest in human HL60 cells assessed as accumulation at G2/M-phase at IC50 after 24 hrs by propidium iodide staining based flow cytometric method (reference value: 14.06%)", "assay_type": "functional"}}, "note": "Calls of active or inactive are those of the source. The rule behind the calls is not given here.", "data": [{"smiles": "CC(=O)O[C@H](OCc1ccccc1)[C@]1(C)C(=O)[C@@H](I)C(=O)[C@@H](C)[C@@H]2CC[C@H]1O2", "values": [{"measurement": "IC50", "setting": "MCF7 [1]", "result": 18.8, "unit": "µM"}, {"measurement": "Activity", "setting": "DNA [2]", "result": "inactive"}, {"measurement": "Activity", "setting": "DNA [3]", "result": 51, "unit": "%"}, {"measurement": "Activity", "setting": "HL-60 [4]", "result": 31.14, "unit": "%"}, {"measurement": "Activity", "setting": "DNA [5]", "result": "inactive"}, {"measurement": "Activity", "setting": "HL-60 [6]", "result": 26.31, "unit": "%"}, {"measurement": "Activity", "setting": "MCF7 [7]", "result": "Active"}, {"measurement": "Activity", "setting": "HL-60 [8]", "result": 55.71, "unit": "%"}, {"measurement": "Activity", "setting": "DNA [9]", "result": "inactive"}, {"measurement": "Activity", "setting": "MCF7 [10]", "result": "Active"}, {"measurement": "Activity", "setting": "HL-60 [11]", "result": 0.35, "unit": "%"}, {"measurement": "Activity", "setting": "DNA [12]", "result": 28, "unit": "%"}, {"measurement": "Activity", "setting": "DNA [13]", "result": 19, "unit": "%"}, {"measurement": "Activity", "setting": "MCF7 [14]", "result": "Active"}, {"measurement": "Activity", "setting": "MCF7 [15]", "result": "Active"}, {"measurement": "Activity", "setting": "DNA [16]", "result": 1, "unit": "%"}, {"measurement": "Activity", "setting": "MCF7 [17]", "result": "Active"}, {"measurement": "Activity", "setting": "HL-60 [18]", "result": 16.97, "unit": "%"}, {"measurement": "IC50", "setting": "HL-60 [19]", "result": 3.05, "unit": "µM"}, {"measurement": "Activity", "setting": "DNA [20]", "result": 1, "unit": "%"}, {"measurement": "Activity", "setting": "MCF7 [21]", "result": "Active"}, {"measurement": "Activity", "setting": "MCF7 [22]", "result": "inactive"}, {"measurement": "Activity", "setting": "HL-60 [23]", "result": 26.85, "unit": "%"}, {"measurement": "Activity", "setting": "HL-60 [24]", "result": 67.37, "unit": "%"}, {"measurement": "Activity", "setting": "MCF7 [25]", "result": "Active"}, {"measurement": "Activity", "setting": "MCF7 [26]", "result": "Active"}, {"measurement": "Activity", "setting": "Calf thymus DNA", "result": "inactive"}, {"measurement": "IC50", "setting": "MCF7 [27]", "result": 27.2, "unit": "µM"}, {"measurement": "Activity", "setting": "MCF7 [28]", "result": "Active"}, {"measurement": "Activity", "setting": "DNA [29]", "result": 3.6, "unit": "%"}, {"measurement": "Activity", "setting": "MCF7 [30]", "result": "Active"}, {"measurement": "Activity", "setting": "MCF7 [31]", "result": "Active"}, {"measurement": "IC50", "setting": "HL-60 [32]", "result": 3.24, "unit": "µM"}, {"measurement": "Activity", "setting": "HL-60 [33]", "result": 6.33, "unit": "%"}]}, {"smiles": "COC(=O)Nc1nc2cc(C(=O)c3cccs3)ccc2[nH]1", "note": "[NOCODAZOLE]", "values": [{"measurement": "Activity", "setting": "HL-60 [4]", "result": 14.11, "unit": "%"}, {"measurement": "Activity", "setting": "HL-60 [6]", "result": 21.26, "unit": "%"}, {"measurement": "Activity", "setting": "HL-60 [24]", "result": 45.28, "unit": "%"}, {"measurement": "Activity", "setting": "HL-60 [33]", "result": 33.46, "unit": "%"}]}, {"smiles": "C[C@H]1[C@H]2CC[C@H](O2)[C@]2(C)[C@@H](OCc3ccccc3)C(=O)C[C@]12O", "note": "(relative stereo)", "values": [{"measurement": "IC50", "setting": "MCF7 [1]", "result": "> 250", "unit": "µM"}, {"measurement": "IC50", "setting": "HL-60 [19]", "result": "> 250", "unit": "µM"}, {"measurement": "IC50", "setting": "MCF7 [27]", "result": "> 250", "unit": "µM"}, {"measurement": "IC50", "setting": "HL-60 [32]", "result": "> 250", "unit": "µM"}]}]}
